Laboratory results reported in patent US8452543B2, “High throughput screening for antimicrobial dosing regimens” (priority 2005, dated 2013).
In brackets after ≈: the same amount, converted by molar mass. Where two headings read alike, the source gives them in different places.

How the values were obtained:
[1] = tested on: P. aeruginosa PA 27853 and resistant isolates MR1, MR2, MR3; experiment: microbe, parasite or virus in culture; assay type: cell-based, Pseudomonas aeruginosa; conditions: Pseudomonas aeruginosa
Experimental: (§1) Minimum inhibitory concentration (MIC)/minimum bactericidal concentration (MBC) were determined in Ca-MHB using a modified macrobroth dilution method as described by the CLSI (10). The final concentration of bacteria in each macrobroth dilution tube was approximately 5×10^5 cfu/ml of Ca-MHB. Serial twofold dilutions of meropenem were used. […] Samples (50 μl) from clear tubes and the cloudy tube with the highest drug concentration were plated on Mueller-Hinton agar (MHA) plates (Hardy Diagnostics, Santa Maria, Calif.). […] Drug carry-over effect was assessed by visual inspection of the distribution of colonies on media plates. The studies were conducted in duplicate and repeated at least once on a separate day.

[2] = tested on: P. aeruginosa PA 27853 and resistant isolates MR1, MR2, MR3; experiment: microbe, parasite or virus in culture; assay type: cell-based; conditions: Pseudomonas aeruginosa, Etest
[3] = tested on: amikacin resistant A. baumannii isolates; experiment: Resistance confirmation, repeat susceptibility testing, amikacin; assay type: cell-based, Acinetobacter baumannii; conditions: for cross-resistance: amikacin resistant isolates
Experimental: The media plates were incubated at 35° C. for up to 24 (total population) and 72 hours (sub-populations with reduced susceptibility), then bacterial density from each sample was enumerated visually. The theoretical lower limit of detection was 400 CFU/ml.

[4] = tested on: A. baumannii ATCC BAA 747; experiment: MIC/MBC, modified macrobroth dilution; assay type: cell-based; conditions: Acinetobacter baumannii, BAA747; A. baumannii isolate (AB BAA 747)
Experimental: as §1, with “The” for “Minimum inhibitory concentration (MIC)/minimum bactericidal concentration (MBC) were determined in Ca-MHB using a modified macrobroth dilution method as described by the CLSI (10). The”

[5] = tested on: A. baumannii ATCC BAA 747; experiment: Time-kill studies and best-fit model, amikacin; assay type: cell-based, Acinetobacter baumannii
[6] = tested on: levofloxacin resistant P. aeruginosa isolates; experiment: Susceptibility of levofloxacin resistant isolates, screening panel; assay type: cell-based, Pseudomonas aeruginosa
P. aeruginosa ATCC 27853 [7] = experiment: Time-kill studies and model fit, levofloxacin; assay type: cell-based, Pseudomonas aeruginosa; conditions: for EC50: Pseudomonas aeruginosa
Experimental: An overnight culture of the isolate was diluted 30-fold with pre-warmed Ca-MHB and incubated further at 35 C until reaching late log phase growth. The bacterial suspension was diluted with Ca-MHB accordingly based on absorbance at 630 nm; 15 mL of the suspension was transferred to 50 mL sterile conical flasks each containing 1 mL of a drug solution at 16·the target concentration. The final concentration of the bacterial suspension in each flask at baseline was approximately 1×10^8 CFU/mL.
The high inoculum was used to simulate the bacterial load in a severe infection, e.g., nosocomial pneumonia. Furthermore, the high inoculum used would allow resistant sub-population(s) to be likely present at baseline. The experiment was conducted for 24 h in a shaker water bath set at 35° C. Serial samples (baseline, 0.5, 1, 2, 4, 8, 12, and 24 h) were obtained from each flask over 24 h to characterize the effect of various drug exposures on the total bacterial population.
Prior to culturing the bacteria quantitatively, the bacterial samples (0.5 mL) were centrifuged at 10,000 g for 15 min, and reconstituted with sterile normal saline to their original volumes in order to minimize drug carry-over effect. Total bacterial populations were quantified by spiral plating 10 serial dilutions of the samples (50 IL) onto Ca-MHA plates. The media plates were incubated in a humidified incubator (35° C. for 18-24 h, and the bacterial density from each sample was determined by CASBA-4 colony scanner/software (Spiral Biotech, Bethesda, Md.). The reliable limit of detection was 400 CFU/mL. The experiment was repeated once on a separate day.
The mathematical framework described Example 1 is used to predict whether a microbial population will be eradicated or survive under an antimicrobial pressure whose concentration over time follows a clinically realistic (time-periodic) profile. For absence of agent (placebo, C=0 Ig/mL) and by inspection in FIG. 13 it is determined that Nmax=10^9.4 CFU/mL. Using this value for Nmax standard nonlinear least squares (differential evolution of mathematica) is used to get a growth rate constant value Kg=0.22 h^−1.
It is assumed that Kg is the same for all bacterial sub-populations, owing to common basic physiology. For the highest agent concentration used (C=64 Ig/mL) there appears to be complete eradication of the entire microbial population after the third sample in time. Therefore, no experimental points beyond that are considered in the data fit. Further, it is assumed that the maximum kill rate, Kk, occurring at an antibiotic concentration high enough to saturate all bacterial target sites, is the same for all bacteria, namely Kk=Kb. […] The values of the remaining parameters are estimated using standard nonlinear least squares for concentrations C=0.5, . . . , 32 Ig/mL (Table 4).

P. aeruginosa ATCC 27853 [8] = experiment: MIC/MBC, modified macrobroth dilution; assay type: cell-based, Pseudomonas aeruginosa; conditions: P. aeruginosa ATCC 27853
Experimental: as §1, with “The” for “Minimum inhibitory concentration (MIC)/minimum bactericidal concentration (MBC) were determined in Ca-MHB using a modified macrobroth dilution method as described by the CLSI (10). The”

[9] = strain MR1 (Placebo exposure, OprD−)
[10] = strain MR2 (Cmin/MIC 0.5, OprD− & Mex+)
[11] = strain MR3 (Cmin/MIC 1.7, OprD− & Mex+), read-out: MIC

`CC1(C)S[C@@H]2[C@H](NC(=O)C(C(=O)O)c3ccccc3)C(=O)N2[C@H]1C(=O)O` (stereo partly shown) [CAR, carbenicillin] gave an MIC ([1]; strain MR2 (Cmin/MIC 0.5, OprD− & Mex+), macrobroth method) of 512 µg/mL (≈ 1350 µM), an MIC ([1]; strain MR3 (Cmin/MIC 1.7, OprD− & Mex+), macrobroth method, read-out: MIC) of 512 µg/mL (≈ 1350 µM) and an MIC ([1]; strain PA 27853, macrobroth method) of 64 µg/mL (≈ 169 µM).

In the case of `CC(C)(O/N=C(\C(=O)N[C@@H]1C(=O)N2C(C(=O)[O-])=C(C[n+]3ccccc3)CS[C@H]12)c1csc(N)n1)C(=O)O` [CAZ, ceftazidime], the MIC [2, 9] was 1 µg/mL (≈ 1.83 µM), the MIC [2, 10] was 2 µg/mL (≈ 3.66 µM) and the MIC [2, 11] was 4 µg/mL (≈ 7.32 µM). It also gave an MIC ([2]; strain PA 27853) of 1 µg/mL (≈ 1.83 µM).

With `C[C@@H](O)[C@H]1C(=O)N2C(C(=O)O)=C(SCCN=CN)C[C@H]12` [IPM, imipenem] the MIC [2, 9] was > 32 µg/mL, the MIC [2, 10] was > 32 µg/mL and the MIC [2, 11] was 32 µg/mL (≈ 107 µM). For the same compound, the MIC ([2]; strain PA 27853) was 3 µg/mL (≈ 10 µM).

Work on `CCN1CCN(C(=O)N[C@@H](C(=O)N[C@@H]2C(=O)N3[C@@H]2SC(C)(C)[C@@H]3C(=O)O)c2ccccc2)C(=O)C1=O` [PIP, piperacillin] yielded an MIC [2, 9] of 3 µg/mL (≈ 5.8 µM), an MIC [2, 10] of 8 µg/mL (≈ 15.5 µM) and an MIC [2, 11] of 32 µg/mL (≈ 61.8 µM). It also gave an MIC ([2]; strain PA 27853) of 3 µg/mL (≈ 5.8 µM).

For `NC[C@H]1O[C@H](O[C@H]2[C@H](O)[C@@H](O[C@H]3O[C@H](CO)[C@@H](O)[C@H](N)[C@H]3O)[C@H](N)C[C@@H]2N)[C@H](N)C[C@@H]1O` [TOB, tobramycin], the cross-resistance [3] was “observed”, the MIC [2, 9] was 0.5 µg/mL (≈ 1.07 µM) and the MIC [2, 10] was 0.5 µg/mL (≈ 1.07 µM). The MIC [2, 11] was 0.5 µg/mL (≈ 1.07 µM) and the MIC ([2]; strain PA 27853) was 0.5 µg/mL (≈ 1.07 µM).

`NCC[C@H](O)C(=O)N[C@@H]1C[C@H](N)[C@@H](O[C@H]2O[C@H](CN)[C@@H](O)[C@H](O)[C@H]2O)[C@H](O)[C@H]1O[C@H]1O[C@H](CO)[C@@H](O)[C@H](N)[C@H]1O` [amikacin] was tested, and the stability of resistance ([3]; resistant isolates from sub-optimal dosing regimens) was “phenotypically stable”, the MBC [4] was 8 µg/mL (≈ 13.7 µM) and the MIC [4] was 4 µg/mL (≈ 6.83 µM). The H ([5]; AB BAA 747) was 3.06, the Kk ([5]; AB BAA 747) was 27.81 h⁻¹ and the β ([5]; AB BAA 747) was 50.09. For the same compound, the τ ([5]; AB BAA 747) was 442 µL/min/mg, the EC50 ([5]; Acinetobacter baumannii, BAA747, AB BAA 747, read-out: C50k) was 1.56 µg/mL (≈ 2.66 µM) and the “concentrations with complete bacterial eradication” value ([5]; after 2 hours of drug exposure) was > 16 mg/L.

With `CO/N=C(\C(=O)N[C@@H]1C(=O)N2C(C(=O)[O-])=C(C[N+]3(C)CCCC3)CS[C@H]12)c1csc(N)n1` [cefepime] the cross-resistance [3] was “not”.

`O=C(O)c1cn(C2CC2)c2cc(N3CCNCC3)c(F)cc2c1=O` [ciprofloxacin] was tested, and the “cross resistance, change in MIC” value ([6]; levofloxacin resistant isolates) was ≥ 4 fold.

`C[C@H]1COc2c(N3CCN(C)CC3)c(F)cc3c(=O)c(C(=O)O)cn1c23` [levofloxacin] was tested, and the “increase in MIC compared to the parent strain” value ([6]; two random isolates from drug supplemented media plates) was 16 fold, the MIC [2, 9] was 0.75 µg/mL (≈ 2.08 µM) and the MIC [2, 10] was 4 µg/mL (≈ 11.1 µM). For the same compound, the MIC ([2]; strain PA 27853) was 0.75 µg/mL (≈ 2.08 µM), the MIC [1] was 6 µg/mL (≈ 16.6 µM) and the EC50 (P. aeruginosa ATCC 27853 [7]; ATCC27853, read-out: C50) was 0.86 µg/mL (≈ 2.38 µM). For the same compound, the EC50 (P. aeruginosa ATCC 27853 [7]; ATCC27853, read-out: C50b) was 39.4 µg/mL (≈ 109 µM), the C50A (P. aeruginosa ATCC 27853 [7]; model fit) was 0.45 µg/mL and the H (P. aeruginosa ATCC 27853 [7]; model fit) was 1.7. It also gave an HA (P. aeruginosa ATCC 27853 [7]; model fit) of 10, a Hb (P. aeruginosa ATCC 27853 [7]; model fit) of 24 and an MIC (P. aeruginosa ATCC 27853 [8]) of 2 Ig/mL.
